# Reference: publication PMC7692337, “Masked Phenolic-Selenium Conjugates: Potent and Selective Antiproliferative Agents Overcoming P-gp Resistance” (Pharmaceuticals, 2020)
# Like-named read-outs stand apart in the source and are kept apart here.
# Assays:
# [1] = tested on: SW1573 (non-small cell lung); test: Antiproliferative activity, NCI protocol; type: cell-based, human
# Procedure: (§1) Organochalcogen derivatives prepared herein were evaluated in vitro as potential antiproliferative agents, using a panel of six human tumour cell lines: A549 (non-small cell lung), HBL-100 (breast), HeLa (cervix), SW1573 (non-small cell lung), as drug sensitive lines, T-47D (breast) and WiDr (colon) as drug resistant lines. In addition to precursors 2, 6, 7, 13, 14, 17, 19, ebselen and cisplatin (CDDP) were used as reference drugs. […] In both cases, the NCI protocol, with minor modifications, was followed; selected data, including the selectivity index (S.I.) can be found in Table 3 and full data in Supporting Information (Table S1).
# (§2) The in vitro antiproliferative activity was assayed using minor modifications of the protocol of the National Cancer Institute (NCI) of the United States against the six human solid tumor cell and the non-tumor cell lines tested.
# WiDr (colon) = test: Antiproliferative activity, NCI protocol; type: cell-based, human; conditions: for GI50: read-out: GI50 WiDr (Colon)
# Procedure: as §1, §2
# HBL-100 (breast) = test: Antiproliferative activity, NCI protocol; type: cell-based, human
# Procedure: as §1, §2
# T-47D (breast) = test: Antiproliferative activity, NCI protocol; type: cell-based, human; conditions: for GI50: read-out: GI50 T-47D (Breast)
# Procedure: as §1, §2
# HeLa (cervix) = test: Antiproliferative activity, NCI protocol; type: cell-based, human
# Procedure: as §1, §2
# [2] = tested on: A549 (non-small cell lung); test: Antiproliferative activity, NCI protocol; type: cell-based, human
# Procedure: as §1, §2
# [3] = Free radical scavenging (DPPH method); conditions: 30 min incubation, absorbance at 515 nm, read-out: EC50 antiradical activity (DPPH)
# Procedure: (§3) In vitro antioxidant properties of key unprotected phenolic derivatives were analyzed using two different methodologies: free radical scavenging capacity, using the DPPH method (2,2-diphenyl-1-picrylhydrazyl), a HAT (hydrogen atom transfer) procedure, widely-used for both natural and synthetic derivatives, and also the capacity for scavenging H2O2, one of the most common ROS in degenerative diseases, including cancer.
# DPPH is a commercially-available stable free radical commonly used for in vitro testing of radical scavenging properties of antioxidants.
# Reported methodology was used with minor modifications. To a 60 µM methanolic DPPH solution (1.17 mL), the antioxidant solution (5–7 different solutions, 30 µL) or solvent (control, 30 µL) were added. After 30 min. of incubation in the dark, absorbance was measured at 515 nm, and EC50 values were calculated.
# [4] = tested on: six human tumour cell lines (A549, HBL-100, HeLa, SW1573, T-47D, WiDr); test: Antiproliferative activity, panel of six human tumour cell lines; type: cell-based; conditions: summary over the tested tumour cell lines, highest tested concentration 100 µM; for GI50: Homo sapiens, read-out: GI50 over the tumour cell lines (range, bound or words)
# Procedure: as §1, §2
# [5] = H2O2 scavenging (phenol red / horseradish peroxidase); conditions: At 50 µM
# Procedure: as §3
# Herein, following Bahorun’s methodology, in vitro levels of H2O2 were measured in an indirect fashion, by registering the H2O2-mediated oxidation of phenol red in the presence of horseradish peroxidase, to give a chromophore with a maximum absorption at 610 nm. Accordingly, in the presence of an antioxidant agent, there is an inverse correlation between the observed absorbance, and the scavenging properties. Table 2 depicts the H2O2-scavenging properties of compounds prepared herein, and tested at a final 50 µM concentration.
# Reported methodology was used with minor modifications.
# BJ-hTert (fibroblasts) = test: Antiproliferative activity on non-tumour cells, NCI protocol; type: cell-based, human; conditions: non-tumour cell line; for GI50: read-out: GI50 BJ-hTert (Fibroblasts)
# Procedure: as §1, §2
# [6] = P-glycoprotein assay, line overexpressing P-gp; type: cell-based, human; conditions: human, 48 h exposure
# Procedure: (§4) This assay allows prediction of whether a certain chemotherapeutic agent could develop chemoresistance when behaving as a P-gp substrate, one of the most common efllux-pumps used for the extrusion of cell xenobiotics. For that purpose, a cell line-based assay was used, in particular the lung cancer cell line in its wild type (SW1573), and its variant overexpressing P-gp (Sw1573/Pgp). Moreover, compounds were tested in the presence and in the absence of verapamil, which is known to inhibit P-gp. Chemotherapeutic agents paclitaxel (PTX) and vinblastine (VB) are used herein as reference compounds. In this assay, the resistance factor (Rf) for a certain compound is defined as the ratio of GI50 in the cell line overexpressing P-gp and the wild one (Table 4), high values of Rf denoting that the compound behaves as a P-gp substrate, and thus, chemoresistance through this mechanism will probably take place.
# SW1573/Pgp = test: P-glycoprotein assay, line overexpressing P-gp; type: cell-based, human; conditions: ratio between GI50 values in SW1573/PGP and SW1573 cells; for Rf w Verapamil: with verapamil; for Rf w/o Verapamil: without verapamil
# Procedure: as §4
# SW1573 = test: P-glycoprotein assay, wild type line; type: cell-based; conditions: Homo sapiens, 48 h exposure
# Procedure: as §4
# [7] = Homo sapiens, SW1573, Table S1, read-out: GI50 SW1573 (Lung)
# [8] = Homo sapiens, WiDr, drug resistant line
# [9] = Homo sapiens, HBL-100; read-out: GI50 HBL-100 (Breast)
# [10] = Homo sapiens, T47D, drug resistant line
# [11] = Homo sapiens, HeLa; read-out: GI50 HeLa (Cervix)
# [12] = Homo sapiens, A549; read-out: GI50 A549 (Lung)
# [13] = with verapamil (concentration not stated), with verapamil, read-out: GI50 SW1573/PGP w Verapamil
# [14] = without verapamil, read-out: GI50 SW1573/PGP w/o Verapamil
# [15] = with verapamil, read-out: GI50 SW153 w Verapamil
# [16] = without verapamil, read-out: GI50 SW1573 w/o Verapamil
# [17] = Table S1, read-out: GI50 SW1573 (Lung)
# [18] = read-out: GI50 HBL-100 (Breast)
Molecule,"GI50 [1, 7]",GI50 (WiDr (colon); [8]),GI50 (HBL-100 (breast); [9]),GI50 (T-47D (breast); [10]),GI50 (HeLa (cervix); [11]),"GI50 [2, 12]",EC50 [3],"GI50 over the tumour cell lines (range, bound or words) [4]",% Scavenging of H2O2 [5],"GI50 (BJ-hTert (fibroblasts); Homo sapiens, Fibroblast)","GI50 at 48 h [6, 13]","GI50 at 48 h [6, 14]",Rf w Verapamil (SW1573/Pgp),Rf w/o Verapamil (SW1573/Pgp),GI50 (SW1573; [15]),GI50 (SW1573; [16]),also measured
O=C(CCCSSCCCC(=O)NCCc1ccc(O)c(O)c1)NCCc1ccc(O)c(O)c1 [Compound 10],> 100 µM,> 100 µM,> 100 µM,> 100 µM,> 100 µM,> 100 µM,15.3 ± 0.1 µM,negligible activities,11.8 ± 0.5%,,,,,,,,
"c1cc2c(cc1CC[Se][Se]CCc1ccc3c(c1)OCO3)OCO2 [Compound 40, Bis[2-(3′,4′-methylenedioxyphenyl)ethyl]diselenide]",2.7 ± 0.3 µM,1.2 ± 0.1 µM,2 ± 0.9 µM,0.88 ± 0.17 µM,0.95 ± 0.07 µM,1.6 ± 0.5 µM,,low micromolar‒submicromolar activities,,28 ± 5 µM,4.5 ± 1 µM,3.9 ± 0.2 µM,2.5,2.0,1.8 ± 0.2 µM,1.9 ± 0.1 µM,
"[NH2][Pt]([NH2])([Cl])[Cl] [CDDP, cisplatin, reference compound]",,,,,,,,,,,,,,,,,"GI50 [1, 17]: 3.4 ± 0.7 µM; GI50 (WiDr (colon); drug resistant line): 26 ± 6 µM; GI50 (HBL-100 (breast); [18]): 1.9 ± 0.2 µM; GI50 (T-47D (breast); drug resistant line): 15 ± 2 µM; GI50 (HeLa (cervix); read-out: GI50 HeLa (Cervix)): 2 ± 0.3 µM; GI50 ([2]; read-out: GI50 A549 (Lung)): 4.9 ± 0.2 µM; GI50 (BJ-hTert (fibroblasts)): 14 ± 2 µM"
"N#C[Se]CCCc1ccc2c(c1)OCO2 [Compound 37, 3-(3’,4’-Methylenedioxyphenyl)propyl selenocyanate]",,,,,,,,,,,,,,,,,GI50 WiDr (Colon) (WiDr (colon); drug resistant line): Not soluble; GI50 HBL-100 (Breast) (HBL-100 (breast)): Not soluble; GI50 T-47D (Breast) (T-47D (breast); drug resistant line): Not soluble; GI50 HeLa (Cervix) (HeLa (cervix)): Not soluble; GI50 A549 (Lung) [2]: Not soluble; GI50 BJ-hTert (Fibroblasts) (BJ-hTert (fibroblasts)): Not soluble
"N#C[Se]CCC(=O)NCCc1ccc(O)c(O)c1 [Compound 20, N-[2′-(3′’,4′’-Dihydroxyphenyl)ethyl]-3-selenocyanatopropanamide]",,,,,,,10.8 ± 0.4 µM,moderate antiproliferative properties,25.8 ± 1.0%,,,,,,,,"GI50 ([1]; Homo sapiens, SW1573, read-out: GI50 SW1573 (Lung)): 24 ± 8 µM; GI50 (WiDr (colon); Homo sapiens, WiDr): 41 ± 10 µM; GI50 (HBL-100 (breast); Homo sapiens, HBL-100, read-out: GI50 HBL-100 (Breast)): 37 ± 2 µM; GI50 (T-47D (breast); Homo sapiens, T47D): 35 ± 1 µM; GI50 (HeLa (cervix); Homo sapiens, HeLa, read-out: GI50 HeLa (Cervix)): 19 ± 8 µM; GI50 ([2]; Homo sapiens, A549, read-out: GI50 A549 (Lung)): 28 ± 8 µM"
"O=C(CSSCC(=O)NCCc1ccc(O)c(O)c1)NCCc1ccc(O)c(O)c1 [Compound 8, 2,2′-Dithiobis{N-[2′’-(3′’’,4′’’-dihydroxyphenyl)ethyl]acetamide}]",> 100 µM,> 100 µM,> 100 µM,> 100 µM,> 100 µM,> 100 µM,12.3 ± 0.5 µM,negligible activities,26.5 ± 2.1%,,,,,,,,
"N#C[Se]CCCC(=O)NCCc1ccc2c(c1)OCO2 [Compound 45, N-[2′-(3′,4′-Methylenedioxyphenyl)ethyl]-4-selenocyanatobutanamide]",0.81 ± 0.02 µM,0.41 ± 0.03 µM,1.6 ± 0.3 µM,0.4 ± 0.04 µM,0.36 ± 0.09 µM,0.41 ± 0.03 µM,,,,1.8 ± 0.7 µM,2.5 ± 0.1 µM,3.3 ± 0.6 µM,2.3,3.1,1.1 ± 0.1 µM,1.1 ± 0.2 µM,GI50 [4]: 0.36 to 1.6 µM
"O=C(CCC[Se][Se]CCCC(=O)NCCc1ccc(O)c(O)c1)NCCc1ccc(O)c(O)c1 [Compound 16, 4,4′-Diselenobis{N-[2′’-(3′’’,4′’’-dihydroxyphenyl)ethyl]butanamide}]",3 ± 0.2 µM,3.9 ± 0.6 µM,2.4 ± 0.6 µM,5.8 ± 0.9 µM,2.3 ± 0.4 µM,3.7 ± 0.6 µM,9.3 ± 1.3 µM,,,3.5 ± 0.6 µM,5.1 ± 0.4 µM,5.1 ± 0.6 µM,2.2,1.9,2.3 ± 0.3 µM,2.7 ± 0.3 µM,GI50 [4]: < 6 µM
"N-[2′-(3′’,4′’-Dihydroxyphenyl)ethyl]-3-phenylselenopropanamide [Compound 18]",,,,,,,23.2 ± 0.6 µM,moderate antiproliferative properties,19.0 ± 0.8%,,,,,,,,"GI50 [1, 17]: 28 ± 4 µM; GI50 (WiDr (colon); drug resistant line): 85 ± 21 µM; GI50 (HBL-100 (breast); [18]): 34 ± 1 µM; GI50 (T-47D (breast); drug resistant line): 71 ± 5 µM; GI50 (HeLa (cervix); read-out: GI50 HeLa (Cervix)): 23 ± 1 µM; GI50 ([2]; read-out: GI50 A549 (Lung)): 33 ± 5 µM"
"N#C[Se]Cc1ccc2c(c1)OCO2 [Compound 35, (3′,4′-Methylenedioxyphenyl)methyl selenocyanate]",4.4 ± 0.5 µM,2 ± 0.1 µM,3.5 ± 1.4 µM,3.4 ± 0.2 µM,3.5 ± 0.8 µM,3.1 ± 0.7 µM,,low micromolar‒submicromolar activities,,8.7 ± 3.2 µM,7 ± 0.6 µM,7.1 ± 0.6 µM,2.3,3.1,3.1 ± 1 µM,2.3 ± 0.5 µM,
"N#C[Se]CCc1ccc2c(c1)OCO2 [Compound 36, 2-(3′,4′-Methylendioxyphenyl)ethyl selenocyanate]",3.8 ± 0.1 µM,1.3 ± 0.6 µM,2.1 ± 0.2 µM,1.1 ± 0.3 µM,1.2 ± 0.2 µM,1.8 ± 0.7 µM,,low micromolar‒submicromolar activities,,14 ± 2 µM,5.3 ± 0.6 µM,6.8 ± 0.4 µM,1.7,1.6,3.1 ± 0.4 µM,4.2 ± 0.7 µM,
